Experiments:
Type in all cases: in vivo
[1] = system: Echinochloa crus-galli (ECHCG); experiment: Pre-emergence herbicidal action against ECHCG
Outline: (§1)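 Greenhouse pot trial: seeds sown, soil-covered, sprayed before emergence with compound in water (0.5% additive; 600 l/ha; ≤320 g/ha). Scoring visual, ~3 weeks, 0–100% scale vs untreated.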

Avena fatua (AVEFA) [2] = experiment: Pre-emergence herbicidal action against AVEFA; conditions: 320 g/ha, visual scoring after about 3 weeks vs untreated controls
Outline: as §1

[3] = system: Verconica persica (VERPE); experiment: Pre-emergence herbicidal action against VERPE
Outline: as §1

[4] = system: Digitaria sanguinalis (DIGSA); experiment: Post-emergence herbicidal action against DIGSA; conditions: visual rating about 3 weeks after treatment
Outline: (§2)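 Rates were 320 g/ha or below, applied as aqueous WP/EC spray with 0.5% additive (600 l/ha) onto one-leaf-stage plants. About 3 weeks later in the greenhouse, damage was scored visually against untreated plants on a 0–100% scale, where 100% means plants died.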

[5] = system: Verconica persica (VERPE); experiment: Post-emergence herbicidal action against VERPE
Outline: as §2

Setaria viridis (SETVI) [6] = experiment: Pre-emergence herbicidal action against SETVI
Outline: as §1

[7] = system: Alopecurus myosuroides (ALOMY); experiment: Pre-emergence herbicidal action against ALOMY; conditions: scored visually after about 3 weeks, 100% = plants have died
Outline: as §1

[8] = system: Digitaria sanguinalis (DIGSA); experiment: Pre-emergence herbicidal action against DIGSA
Text: Seeds of monocotyledonous and dicotyledonous weed plants and crop plants are placed in plastic or organic planting pots and covered with soil. The compounds of the invention, formulated in the form of wettable powders (WP) or as emulsion concentrates (EC), are then applied to the surface of the covering soil as aqueous suspension or emulsion with addition of 0.5% additive at a water application rate equivalent to 600 l/ha. After the treatment, the pots are placed in a greenhouse and kept under good growth conditions for the trial plants. After about 3 weeks, the effect of the preparations is scored visually in comparison with untreated controls as percentages. For example, 100% activity=the plants have died, 0% activity=like control plants.
Tables A1 to A13 below show the effects of selected compounds of the general formula (I) on various harmful plants and at an application rate corresponding to 320 g/ha or lower, which were obtained by the experimental procedure mentioned above. The appendices “a”, “b” and “c” give differentiation by dosage used with otherwise the same harmful plants tested.

[9] = system: Pharbitis purpurea (PHBPU); experiment: Pre-emergence herbicidal action against PHBPU
Outline: as §1

[10] = system: Matricaria inodora (MATIN); experiment: Pre-emergence herbicidal action against MATIN
Outline: as §1

[11] = system: Echinochloa crus-galli (ECHCG); experiment: Post-emergence herbicidal action against ECHCG
Outline: as §2

Viola tricolor (VIOTR) [12] = experiment: Pre-emergence herbicidal action against VIOTR
Outline: as §1

Viola tricolor (VIOTR) [13] = experiment: Post-emergence herbicidal action against VIOTR
Outline: as §2

[14] = system: Alopecurus myosuroides (ALOMY); experiment: Post-emergence herbicidal action against ALOMY; conditions: visual rating about 3 weeks after treatment vs untreated controls (100% = plants have died, 0% = like control plants)
Outline: as §2

[15] = system: Amaranthus retroflexus (AMARE); experiment: Pre-emergence herbicidal action against AMARE; conditions: visual scoring after about 3 weeks vs untreated controls
Outline: as §1

Lolium rigidum (LOLRI) [16] = experiment: Pre-emergence herbicidal action against LOLRI
Outline: as §1

[17] = system: Polygonum convolvulus (POLCO); experiment: Pre-emergence herbicidal action against POLCO
Outline: as §1

[18] = system: Abutilon theophrasti (ABUTH); experiment: Post-emergence herbicidal action against ABUTH; conditions: 80 g/ha, visual rating about 3 weeks after treatment vs untreated controls (100% = plants have died, 0% = like control plants)
Outline: as §2

[19] = system: Pharbitis purpurea (PHBPU); experiment: Post-emergence herbicidal action against PHBPU
Outline: as §2

Setaria viridis (SETVI) [20] = experiment: Post-emergence herbicidal action against SETVI
Outline: as §2

[21] = system: Polygonum convolvulus (POLCO); experiment: Post-emergence herbicidal action against POLCO
Outline: as §2

Lolium rigidum (LOLRI) [22] = experiment: Post-emergence herbicidal action against LOLRI
Outline: as §2

[23] = system: Amaranthus retroflexus (AMARE); experiment: Post-emergence herbicidal action against AMARE
Outline: as §2

Oryza sativa (ORYSA) = conditions: crop plant compatibility, 80 g/ha, effect in comparison to untreated controls
Outline: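 Percent effect on the crop was judged by eye against untreated controls, where 0% means like control and 100% means dead plants. Plants had been sprayed post-emergence at the one-leaf stage and then kept under optimum greenhouse conditions for about 3 weeks.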

Avena fatua (AVEFA) [24] = experiment: Post-emergence herbicidal action against AVEFA; conditions: visual rating about 3 weeks after treatment
Outline: as §2

[25] = 80 g/ha, visual scoring after about 3 weeks vs untreated controls
[26] = 80 g/ha, visual rating about 3 weeks after treatment vs untreated controls (100% = plants have died, 0% = like control plants)

SMILES | Pre-emergence action against ECHCG in % ([1]; dosage 320 g/ha) | Pre-emergence action against AVEFA in % (Avena fatua (AVEFA) [2]) | Pre-emergence action against VERPE in % ([3]; dosage 320 g/ha) | Post-emergence action against DIGSA in % ([4]; 80 g/ha) | Post-emergence action against VERPE in % ([5]; dosage 80 g/ha) | Pre-emergence action against SETVI in % (Setaria viridis (SETVI) [6]; dosage 80 g/ha) | Pre-emergence action against SETVI in % (Setaria viridis (SETVI) [6]; dosage 320 g/ha) | Pre-emergence action against ALOMY ([7]; 320 g/ha) | Pre-emergence action against DIGSA in % [8, 25] | Pre-emergence action against DIGSA in % ([8]; dosage 320 g/ha) | Pre-emergence action against PHBPU in % ([9]; dosage 320 g/ha) | Pre-emergence action against MATIN in % ([10]; dosage 320 g/ha) | Pre-emergence action against VIOTR in % (Viola tricolor (VIOTR) [12]; 320 g/ha, Viola tricolor) | Pre-emergence action against VIOTR in % (Viola tricolor (VIOTR) [12]; dosage 80 g/ha) | Pre-emergence action against AMARE in % ([15]; 320 g/ha) | Pre-emergence action against LOLRI in % (Lolium rigidum (LOLRI) [16]; dosage 320 g/ha) | Pre-emergence action against POLCO in % ([17]; dosage 80 g/ha) | Pre-emergence action against POLCO in % ([17]; dosage 320 g/ha) | Post-emergence action against PHBPU in % ([19]; dosage 80 g/ha) | Post-emergence action against SETVI in % (Setaria viridis (SETVI) [20]; dosage 80 g/ha) | further results
CCOC(=O)COc1nn(-c2ncccc2F)c(-c2ccc(F)nc2)c1Cl [Example I-38] | 100% | 100% | 100% | 90% | 80% | 100% | 100% | 100% | 100% | 100% | 90% | 100% | 100% | 100% | 100% | 100% | 90% | 100% | 90% | 80% | Pre-emergence action against ALOMY ([7]; 80 g/ha): 100%; Pre-emergence action against MATIN in % ([10]; dosage 80 g/ha): 100%; Post-emergence action against ECHCG in % ([11]; dosage 80 g/ha): 90%; Post-emergence action against VIOTR in % (Viola tricolor (VIOTR) [13]; 80 g/ha): 80%; Post-emergence action against ALOMY in % ([14]; 80 g/ha): 100%; Pre-emergence action against AMARE in % ([15]; 80 g/ha): 100%; Post-emergence action against ABUTH in % [18]: 80%; Post-emergence action against POLCO in % ([21]; dosage 80 g/ha): 80%
C=C(COC(=O)[C@@H](C)Oc1nn(-c2ccccn2)c(-c2ccc(F)nc2)c1Cl)C(=O)OC [Example I-322] | 100% | 90% | – | 80% | 80% | 90% | 100% | 100% | 100% | 100% | 90% | 80% | 100% | 80% | 100% | 100% | 80% | 90% | 80% | 80% | Pre-emergence action against ECHCG in % ([1]; dosage 80 g/ha): 80%; Post-emergence action against LOLRI in % (Lolium rigidum (LOLRI) [22]; dosage 80 g/ha): 80%; Post-emergence action against LOLRI in % (Lolium rigidum (LOLRI) [22]; dosage 320 g/ha): 80%; Post-emergence action against DIGSA in % ([4]; 320 g/ha): 80%; Post-emergence action against VERPE in % ([5]; 320 g/ha, VERPE): 80%; Pre-emergence action against ALOMY ([7]; 80 g/ha): 80%; Post-emergence action against ECHCG in % ([11]; dosage 320 g/ha): 80%; Post-emergence action against VIOTR in % (Viola tricolor (VIOTR) [13]; 80 g/ha): 80%; Post-emergence action against VIOTR in % (Viola tricolor (VIOTR) [13]; 320 g/ha): 80%; Post-emergence action against ALOMY in % ([14]; 320 g/ha): 80%; Pre-emergence action against LOLRI in % (Lolium rigidum (LOLRI) [16]; dosage 80 g/ha): 90%; Post-emergence action against AMARE in % [23, 26]: 80%; Post-emergence action against AMARE in % ([23]; 320 g/ha, visual rating about 3 weeks after treatment): 80%; Post-emergence action against PHBPU in % ([19]; dosage 320 g/ha): 80%; Post-emergence action against ORYSA in % (Oryza sativa (ORYSA)): 10%; Post-emergence action against SETVI in % (Setaria viridis (SETVI) [20]; dosage 320 g/ha): 80%; Post-emergence action against AVEFA in % (Avena fatua (AVEFA) [24]; 80 g/ha): 80%; Post-emergence action against AVEFA in % (Avena fatua (AVEFA) [24]; 320 g/ha): 80%; Post-emergence action against POLCO in % ([21]; dosage 80 g/ha): 80%; Post-emergence action against POLCO in % ([21]; dosage 320 g/ha): 80%
CCOC(=O)COc1nn(-c2nc(F)ccc2F)c(-c2cncc(F)c2)c1Cl [Example I-163] | 90% | – | 80% | – | – | 80% | 100% | 90% | 90% | 100% | 90% | 90% | 100% | 90% | 90% | 90% | 80% | 80% | 80% | 80% | Pre-emergence action against ECHCG in % ([1]; dosage 80 g/ha): 80%; Post-emergence action against LOLRI in % (Lolium rigidum (LOLRI) [22]; dosage 320 g/ha): 80%; Post-emergence action against DIGSA in % ([4]; 320 g/ha): 80%; Pre-emergence action against PHBPU in % ([9]; dosage 80 g/ha): 90%; Pre-emergence action against MATIN in % ([10]; dosage 80 g/ha): 90%; Post-emergence action against ECHCG in % ([11]; dosage 80 g/ha): 80%; Post-emergence action against ECHCG in % ([11]; dosage 320 g/ha): 80%; Post-emergence action against VIOTR in % (Viola tricolor (VIOTR) [13]; 320 g/ha): 80%; Post-emergence action against ALOMY in % ([14]; 320 g/ha): 80%; Post-emergence action against PHBPU in % ([19]; dosage 320 g/ha): 90%; Post-emergence action against SETVI in % (Setaria viridis (SETVI) [20]; dosage 320 g/ha): 90%
COCCOCCOC(=O)COc1nn(-c2ncccc2F)c(-c2ccc(F)nc2)c1Br [Example I-37] | 100% | 90% | 100% | 90% | 80% | 100% | 100% | 100% | 100% | 100% | 90% | 100% | 100% | 100% | 100% | 100% | 80% | 90% | 80% | 80% | Pre-emergence action against VERPE in % ([3]; dosage 80 g/ha): 80%; Pre-emergence action against ALOMY ([7]; 80 g/ha): 100%; Post-emergence action against ECHCG in % ([11]; dosage 80 g/ha): 80%; Post-emergence action against ALOMY in % ([14]; 80 g/ha): 90%; Pre-emergence action against AMARE in % ([15]; 80 g/ha): 100%; Pre-emergence action against LOLRI in % (Lolium rigidum (LOLRI) [16]; dosage 80 g/ha): 80%; Post-emergence action against ABUTH in % [18]: 80%; Post-emergence action against AMARE in % [23, 26]: 90%; Post-emergence action against POLCO in % ([21]; dosage 80 g/ha): 80%

Source: US20240041042A1, “1-(PYRIDYL)-5-AZINYLPYRAZOLE DERIVATIVES, AND THEIR USE FOR CONTROL OF UNDESIRED PLANT GROWTH” (Bayer Aktiengesellschaft, priority 2020, published 2024)
